# Results from patent US10112950B2, “Substituted imidazo[1,2-a]pyrazines as LSD1 inhibitors” (Incyte Corporation, priority 2014, dated 2018).
# Biological target: LSD-1 enzyme (Homo sapiens (Human), UniProt O60341)
# Assay: LANCE LSD1/KDM1A demethylase assay (LSD1 histone demethylase biochemical assay)
# Details: 1 nM LSD-1 enzyme, 1 hour preincubation at 25° C., 0.4 μM Biotin-labeled Histone H3 peptide substrate
# Method: LSD1 Histone Demethylase Biochemical Assay
# LANCE LSD1/KDM1A demethylase assay-10 μL of 1 nM LSD-1 enzyme (ENZO BML-SE544-0050) in the assay buffer (50 mM Tris, pH 7.5, 0.01% Tween-20, 25 mM NaCl, 5 mM DTT) were preincubated for 1 hour at 25° C. with 0.8 μL compound/DMSO dotted in black 384 well polystyrene plates. […] Reactions were stopped by addition of 10 μL 1× LANCE Detection Buffer (PerkinElmer CR97-100) supplemented with 1.5 nM Eu-anti-unmodified H3K4 Antibody (PerkinElmer TRF0404), and 225 nM LANCE Ultra Streptavidin (PerkinElmer TRF102) along with 0.9 mM Tranylcypromine-HCl (Millipore 616431). After stopping the reactions plates were incubated for 30 minutes and read on a PHERAstar FS plate reader (BMG Labtech).
row,SMILES,IC50 [nM]
1,"Cc1ccc(-c2c(-c3ccc(C#N)cc3)nc(OC[C@@H]3CCNC3)c3nc(CO)cn23)cc1 [Example 41, 4-{2-(hydroxymethyl)-5-(4-methylphenyl)-8-[(3R)-pyrrolidin-3-ylmethoxy]imidazol[1,2-a]pyrazin-6-yl}benzonitrile]",≤ 50
2,"Cc1ccc(-c2c(-c3ccc(C#N)cc3)nc(OC[C@@H]3CCCN(C)C3)c3nccn23)cc1CC#N [Example 91, 4-(5-[3-(cyanomethyl)-4-methylphenyl]-8-{[(3R)-1-methylpiperidin-3-yl]methoxy}imidazo[1,2-a]pyrazin-6-yl)benzonitrile]",≤ 50
3,"CN(C)C1CCN(c2nc(-c3ccc(C#N)cc3)c(-c3ccc(N4CCOC4=O)nc3)n3ccnc23)CC1 [Example 67, 4-{8-[4-(dimethylamino)piperidin-1-yl]-5-[6-(2-oxo-1,3-oxazolidin-3-yl)pyridin-3-yl]imidazo[1,2-a]pyrazin-6-yl}benzonitrile]",≤ 50
4,"Cc1ccc(-c2c(-c3ccc(C#N)cc3)nc(N3CCC(N(C)C)CC3)c3nccn23)cc1CO [Example 96, 4-{8-[4-(dimethylamino)piperidin-1-yl]-5-[3-(hydroxymethyl)-4-methylphenyl]imidazo[1,2-a]pyrazin-6-yl}benzonitrile]",≤ 50
5,"Cc1ccc(-c2c(-c3ccc(C#N)cc3)nc(OC[C@@H]3CCNC3)c3nc(CCN(C)C)cn23)cc1 [Example 47, 4-{2-[2-(dimethylamino)ethyl]-5-(4-methylphenyl)-8-[(3R)-pyrrolidin-3-ylmethoxy]imidazo[1,2-a]pyrazin-6-yl}benzonitrile]",≤ 50
6,"Cc1cc(-c2c(-c3ccc(C#N)cc3)nc(N3CCC(N(C)C)CC3)c3nccn23)cnc1C [Example 92, 4-[8-[4-(dimethylamino)piperidin-1-yl]-5-(5,6-dimethylpyridin-3-yl)imidazo[1,2-a]pyrazin-6-yl]benzonitrile]",≤ 50
7,"CN1CCN(c2ccc(-c3c(-c4ccc(C#N)cc4)nc(N4CCC(N(C)C)CC4)c4nccn34)cn2)CC1=O [Example 109, 4-{8-[4-(dimethylamino)piperidin-1-yl]-5-[6-(4-methyl-3-oxopiperazin-1-yl)pyridin-3-yl]imidazo[1,2-a]pyrazin-6-yl}benzonitrile]",≤ 50
8,"Cc1ccc(-c2c(-c3ccc(C#N)cc3)nc(OC[C@@H]3CCCN(C)C3)c3nccn23)cc1 [Example 12, 4-(5-(4-methylphenyl)-8-{[(3R)-1-methylpiperidin-3-yl]methoxy}imidazo[1,2-a]pyrazin-6-yl)benzonitrile]",≤ 50
9,"Cc1ccc(-c2c(-c3ccc(C#N)cc3)nc(CCC3CCNC3)c3nccn23)cc1 (centres unmarked) [Example 2, 4-[5-(4-methylphenyl)-8-(2-pyrrolidin-3-ylethyl)imidazo[1,2-a]pyrazin-6-yl]benzonitrile]",≤ 50
10,"CN1CCC[C@@H](COc2nc(-c3ccc(C#N)cc3)c(-c3cc(F)c4c(c3)CCC4O)n3ccnc23)C1 (stereo partly drawn) [Example 88, 4-(5-(7-fluoro-1-hydroxy-2,3-dihydro-1H-inden-5-yl)-8-{[(3R)-1-methylpiperidin-3-yl]methoxy}imidazo[1,2-a]pyrazin-6-yl)benzonitrile]",≤ 50
11,"CN(C)C1CCCN(c2nc(-c3ccc(C#N)cc3)c(-c3ccc(N4CCCC4=O)nc3)n3ccnc23)C1 (centres unmarked) [Example 99, 4-{8-[3-(dimethylamino)piperidin-1-yl]-5-[6-(2-oxopyrrolidin-1-yl)pyridin-3-yl]imidazo[1,2-a]pyrazin-6-yl}benzonitrile]",≤ 50
12,"Cc1ccc(-c2c(-c3ccc(C#N)cc3)nc(CN3CC[C@H](N(C)C)C3)c3nccn23)cc1 [Example 4, 4-[8-{[(3S)-3-(dimethylamino)pyrrolidin-1-yl]methyl}-5-(4-methylphenyl)imidazo[1,2-a]pyrazin-6-yl]benzonitrile]",≤ 50
13,"Cc1ccc(-c2c(-c3ccc(C#N)cc3)nc(N3CCC(N(C)C)CC3)c3nccn23)cc1 [Example 14, 4-[8-[4-(dimethylamino)piperidin-1-yl]-5-(4-methylphenyl)imidazo[1,2-a]pyrazin-6-yl]benzonitrile]",≤ 50
14,"CN1CCC[C@@H](COc2nc(-c3ccc(C#N)cc3)c(-c3ccc4c(c3)CCC4O)n3ccnc23)C1 (stereo partly drawn) [Example 80, 4-(5-(1-hydroxy-2,3-dihydro-1H-inden-5-yl)-8-{[(3R)-1-methylpiperidin-3-yl]methoxy}imidazo[1,2-a]pyrazin-6-yl)benzonitrile]",≤ 50
15,"Cc1ccc(-c2c(-c3ccc(C#N)cc3)nc(N3CCC4(CCNC4)C3)c3nccn23)cc1 (centres unmarked) [Example 19, 4-[8-(2,7-diazaspiro[4.4]non-2-yl)-5-(4-methylphenyl)imidazo[1,2-a]pyrazin-6-yl]benzonitrile]",≤ 50
16,"CN(C)C1CCN(c2nc(-c3ccc(C#N)cc3)c(-c3cnc4c(c3)cc(CO)n4C)n3ccnc23)CC1 [Example 103, 4-{8-[4-(dimethylamino)piperidin-1-yl]-5-[2-(hydroxymethyl)-1-methyl-1H-pyrrolo[2,3-b]pyridin-5-yl]imidazo[1,2-a]pyrazin-6-yl}benzonitrile]",≤ 50
17,"COc1ccc(-c2c(-c3ccc(C#N)cc3)nc(OC[C@@H]3CCNC3)c3nccn23)cc1 [Example 30, 4-{5-(4-methoxyphenyl)-8-[(3R)-pyrrolidin-3-ylmethoxy]imidazol[1,2-a]pyrazin-6-yl}benzonitrile]",≤ 50
18,"CN1CCC[C@@H](COc2nc(-c3ccc(C#N)cc3)c(-c3ccc(N(C)CC4CCCO4)nc3)n3ccnc23)C1 (stereo partly drawn) [Example 52, 4-(8-{[(3R)-1-methylpiperidin-3-yl]methoxy}-5-{6-[methyl(tetrahydrofuran-2-ylmethyl)amino]pyridin-3-yl}imidazo[1,2-a]pyrazin-6-yl)benzonitrile]",≤ 50
19,"CN(C)C1CCN(c2nc(-c3ccc(C#N)cc3)c(-c3cnc4c(c3)oc(=O)n4C)n3ccnc23)CC1 [Example 66, 4-[8-[4-(dimethylamino)piperidin-1-yl]-5-(3-methyl-2-oxo-2,3-dihydro[1,3]oxazolo[4,5-b]pyridin-6-yl)imidazo[1,2-a]pyrazin-6-yl]benzonitrile]",≤ 50
20,"CN1CCN(c2ccc(-c3c(-c4ccc(C#N)cc4)nc(N4CCC(N(C)C)CC4)c4nccn34)cn2)C1=O [Example 100, 4-{8-[4-(dimethylamino)piperidin-1-yl]-5-[6-(3-methyl-2-oxoimidazolidin-1-yl)pyridin-3-yl]imidazo[1,2-a]pyrazin-6-yl}benzonitrile]",≤ 50
21,"Cc1cc(-c2c(-c3ccc(C#N)cc3)nc(OC[C@@H]3CCCN(C)C3)c3nccn23)cc(F)c1CO [Example 81, 4-(5-[3-fluoro-4-(hydroxymethyl)-5-methylphenyl]-8-{[(3R)-1-methylpiperidin-3-yl]methoxy}imidazo[1,2-a]pyrazin-6-yl)benzonitrile]",≤ 50
22,"Cc1ccc(-c2c(-c3ccc(C#N)cc3)nc(N3CCC4(CC3)CNC4)c3nccn23)cc1 [Example 20, 4-[8-(2,7-diazaspiro[3.5]non-7-yl)-5-(4-methylphenyl)imidazo[1,2-a]pyrazin-6-yl]benzonitrile]",≤ 50
23,"Cc1nc2cc(-c3c(-c4ccc(C#N)cc4)nc(N4CCC(N(C)C)CC4)c4nccn34)ccc2n1C [Example 115, 4-[8-[4-(dimethylamino)piperidin-1-yl]-5-(1,2-dimethyl-1H-benzimidazol-5-yl)imidazo[1,2-a]pyrazin-6-yl]benzonitrile]",≤ 50
24,"CN(C)C1CCN(c2nc(-c3ccc(C#N)cc3)c(-c3ccc(N4CCCC4=O)nc3)n3ccnc23)CC1 [Example 57, 4-{8-[4-(dimethylamino)piperidin-1-yl]-5-[6-(2-oxopyrrolidin-1-yl)pyridin-3-yl]imidazo[1,2-a]pyrazin-6-yl}benzonitrile]",≤ 50
25,"Cc1ccc(-c2c(-c3ccc(C#N)cc3)nc(OC[C@@H]3CCCN(C)C3)c3nccn23)c(CO)c1 [Example 90, 4-(5-[2-(hydroxymethyl)-4-methylphenyl]-8-{[(3R)-1-methylpiperidin-3-yl]methoxy}imidazo[1,2-a]pyrazin-6-yl)benzonitrile]",≤ 50
26,"CN1C(=O)COc2cc(-c3c(-c4ccc(C#N)cc4)nc(N4CCC(N(C)C)CC4)c4nccn34)ccc21 [Example 60, 4-[8-[4-(dimethylamino)piperidin-1-yl]-5-(4-methyl-3-oxo-3,4-dihydro-2H-1,4-benzoxazin-7-yl)imidazo[1,2-a]pyrazin-6-yl]benzonitrile]",≤ 50
27,"Cc1ccc(-c2c(-c3ccc(C#N)cc3)nc(OC[C@@H]3CCN(C)C3)c3nc(CN(C)C)cn23)cc1 [Example 46, 4-(2-[(dimethylamino)methyl]-5-(4-methylphenyl)-8-{[(3R)-1-methylpyrrolidin-3-yl]methoxy}imidazo[1,2-a]pyrazin-6-yl)benzonitrile]",≤ 50
28,"CN(C)C1CCN(c2nc(-c3ccc(C#N)cc3)c(-c3ccc4c(c3)oc(=O)n4C)n3ccnc23)CC1 [Example 59, 4-[8-[4-(dimethylamino)piperidin-1-yl]-5-(3-methyl-2-oxo-2,3-dihydro-1,3-benzoxazol-6-yl)imidazo[1,2-a]pyrazin-6-yl]benzonitrile]",≤ 50
29,"Cc1ccc(-c2c(-c3ccc(C#N)cc3)nc(OC[C@@H]3CCNC3)c3nc(CNc4ccon4)cn23)cc1 [Example 45, 4-{2-[(isoxazol-3-ylamino)methyl]-5-(4-methylphenyl)-8-[(3R)-pyrrolidin-3-ylmethoxy]imidazo[1,2-a]pyrazin-6-yl}benzonitrile]",≤ 50
